# Source: patent US5210193A, “Piperazine derivatives” (American Cyanamid Company, priority 1990, dated 1993)
# Key:
# Experiment in all cases: in vitro antibacterial MIC, agar plate dilution
# Assay type in all cases: cell-based
# [1] = test system: Escherichia coli ATCC 25922; settings: Escherichia coli, ATCC25922, 18 h, 35° C., read-out: MIC
# Summary of the method: (§1)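 MIC, mcg/ml: lowest concentration with no visible growth after 18 h incubation at 35° C. Mueller-Hinton agar dilution plates; ~10^4 CFU inoculum via Steers replicating device.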
# [2] = test system: Escherichia coli CMC 84-11; settings: Escherichia coli, CMC8411, 18 h, 35° C., read-out: MIC
# Summary of the method: as §1
# Escherichia coli LL 311 = settings: Escherichia coli, LL311, 18 h, 35° C., read-out: MIC
# Summary of the method: as §1
# [3] = test system: Morganella morganii CMC 84-37; settings: Morganella morganii, CMC8437, 18 h, 35° C., read-out: MIC
# Summary of the method: as §1
# [4] = test system: Proteus rettgeri CMC 84-41; settings: Providencia rettgeri, CMC8441, 18 h, 35° C., read-out: MIC
# Summary of the method: as §1
# [5] = test system: Pseudomonas aeruginosa LL-1244; settings: Pseudomonas aeruginosa, LL1244, 18 h, 35° C., read-out: MIC
# Summary of the method: as §1
# [6] = test system: Pseudomonas aeruginosa VGH 84-4; settings: Pseudomonas aeruginosa, VGH844, 18 h, 35° C., read-out: MIC
# Summary of the method: as §1
# [7] = test system: Serratia marcescens K 84-18; settings: Serratia marcescens, K8418, 18 h, 35° C., read-out: MIC
# Summary of the method: as §1
# [8] = test system: Serratia marcescens VGH 84-30; settings: Serratia marcescens, VGH8430, 18 h, 35° C., read-out: MIC
# Summary of the method: as §1
# [9] = test system: Staphylococcus aureus ATTC 29213; settings: Staphylococcus aureus, ATTC29213, 18 h, 35° C., read-out: MIC
# Summary of the method: as §1
# [10] = test system: Staphylococcus aureus Smith; settings: Staphylococcus aureus, 18 h, 35° C., read-out: MIC
# Summary of the method: as §1
# [11] = test system: Staphylococcus aureus VGH 84-45; settings: Staphylococcus aureus, VGH8445, 18 h, 35° C., read-out: MIC
# Summary of the method: as §1
# [12] = test system: Streptococcus faecalis UCI 85-19; settings: Enterococcus faecalis, UCI8519, 18 h, 35° C., read-out: MIC
# Summary of the method: as §1
# [13] = test system: Streptococcus faecalis VGH 84-65; settings: Enterococcus faecalis, VGH8465, 18 h, 35° C., read-out: MIC
# Summary of the method: as §1
SMILES,MIC [1],MIC [2],MIC (Escherichia coli LL 311),MIC [3],MIC [4],MIC [5],MIC [6],MIC [7],MIC [8],MIC [9],MIC [10],MIC [11],MIC [12],MIC [13]
"CCn1cc(C(=O)O)c(=O)c2c(F)c(F)c(N3CCNC(c4ccsc4)C3)c(F)c21 (stereo not shown) [Example 90, 1-Ethyl-5,6,8-trifluoro-1,4-dihydro-4-oxo-7-[3-(3-thienyl)-1-piperazinyl]-3-quinolinecarboxylic acid]",0.25 µg/mL,0.25 µg/mL,0.25 µg/mL,0.25 µg/mL,1 µg/mL,32 µg/mL,16 µg/mL,1 µg/mL,16 µg/mL,1 µg/mL,0.25 µg/mL,0.25 µg/mL,8 µg/mL,8 µg/mL
"CCn1cc(C(=O)O)c(=O)c2c(F)c(F)c(N3CCNC(C)C3)c(F)c21 (stereo not shown) [Example 91, 1-Ethyl-5,6,8-trifluoro-1,4-dihydro-7-(3-methyl-1-piperazinyl)-4-oxo-3-quinolinecarboxylic acid]",0.5 µg/mL,0.25 µg/mL,0.25 µg/mL,0.12 µg/mL,0.25 µg/mL,8 µg/mL,8 µg/mL,0.5 µg/mL,16 µg/mL,4 µg/mL,2 µg/mL,2 µg/mL,32 µg/mL,32 µg/mL
O=C(O)c1cn(-c2ccc(F)cc2)c2cc(N3CCNC(c4ccsc4)C3)c(F)cc2c1=O (stereo not shown) [Example 100],0.25 µg/mL,0.12 µg/mL,0.25 µg/mL,0.5 µg/mL,1 µg/mL,16 µg/mL,8 µg/mL,4 µg/mL,64 µg/mL,0.06 µg/mL,0.008 µg/mL,0.03 µg/mL,2 µg/mL,2 µg/mL
CCn1cc(C(=O)O)c(=O)c2cc(F)c(N3CCNC(c4ccccn4)C3)c(F)c21 (stereo not shown) [Example 116],0.06 µg/mL,0.06 µg/mL,0.12 µg/mL,0.25 µg/mL,0.5 µg/mL,8 µg/mL,4 µg/mL,0.5 µg/mL,8 µg/mL,2 µg/mL,0.12 µg/mL,0.12 µg/mL,2 µg/mL,2 µg/mL
CCn1cc(C(=O)O)c(=O)c2cc(F)c(N3CCNC(C(C)(F)F)C3)c(F)c21 (stereo not shown) [Example 117],0.06 µg/mL,0.12 µg/mL,0.12 µg/mL,0.25 µg/mL,0.5 µg/mL,8 µg/mL,4 µg/mL,0.25 µg/mL,8 µg/mL,2 µg/mL,0.5 µg/mL,0.5 µg/mL,8 µg/mL,8 µg/mL
